Calls of active or inactive are those of the source. The calls are words filed in the database; no cut-off is given here.
Key:
Erythrocyte = assay: Antioxidant activity in C57Bl/6 mouse erythrocyte assessed as increase in AAPH-induced hemolysis time incubated for 30 mins by spectrophotometry; type: functional, cell-based
RAW264.7 [1] = assay: Cytotoxicity against mouse RAW264.7 cells assessed as cell viability at 100 uM by MTS assay; type: cell-based; details: raw264.7, 100 µM
Aorta = assay: Antioxidant activity in NADPH stimulated Sprague-Dawley rat aorta assessed as reduction in photon emission at 10 uM incubated for 45 mins by lucigenin-enhanced chemiluminescence assay; type: functional, tissue-based
RAW264.7 [2] = assay: Antioxidant activity in phorbol 12,13-dibutyrate stimulated mouse RAW264.7 cells assessed as inhibition of ROS generation by measuring the reduction in photon emission at 100 uM incubated for 60 mins by L-012-enhanced chemiluminescence assay relative to control; type: functional
Right cardiac atrium [3] = assay: Reduction in resting atrial rate in Guinea pig right atria at 100 uM by electrogram (reference value: 175 to 200 bpm); type: functional
Right cardiac atrium [4] = assay: Increase in absolute refractory period in Guinea pig right atria at 100 uM incubated for 30 mins by electrogram; type: functional; details: Cavia porcellus
[5] = Toxicity in rat H9c2(2-1) cells assessed as cell death at 10 uM incubated for 12 hrs under hypoxic simulated ischemia by propidium iodide exclusion assay; type: cell-based
Rattus norvegicus = organism: Rattus norvegicus; assay: (§1) Cardio-protective anti-ischemic activity in rat H9c2(2-1) cells assessed as reduction in cell death at 5 uM incubated for 12 hrs under hypoxic simulated ischemia by propidium iodide exclusion assay; type: functional
Cavia porcellus = organism: Cavia porcellus; assay: Effect on papillary muscle refractory period in Guinea pig at 100 uM by electrogram; type: functional, tissue-based
[6] = as §1; type: functional; set-up: scale not given: the % may be the effect or the level left

In the case of `CC1(C)c2ccccc2C(C)(C)N1[O]`, the Activity (Erythrocyte) was “inactive”, the Activity (RAW264.7 [1]) was “Non-toxic” and the Activity (Aorta) was “inactive”.
For `CC1(C)c2ccccc2C(C)(C)N1O`, the Activity (Erythrocyte) was “inactive”, the Activity (RAW264.7 [1]) was “Non-toxic” and the Activity (Aorta) was “inactive”.
In the case of `CC(COc1c(Cl)cccc1Cl)NCc1ccc2c(c1)C(C)(C)N(O)C2(C)C` (stereo not drawn), the Activity (RAW264.7 [1]) was “Non-toxic”.
For `Cc1cccc(C)c1OCC(C)NCc1ccc2c(c1)C(C)(C)N(O)C2(C)C` (stereo not drawn), the Activity (RAW264.7 [2]) was “inactive”, the Activity (Right cardiac atrium [3]; Cavia porcellus) was “Active” and the Activity (Right cardiac atrium [4]) was “Active”. The Activity [5] was “Toxic”, the Activity (Rattus norvegicus) was “Active” and the Activity (Cavia porcellus) was “inactive”.
In the case of `Cc1cccc(C)c1OCC(C)N` (stereo not drawn) [MEXILETINE], the Activity (RAW264.7 [2]) was “inactive”, the Activity (Right cardiac atrium [3]) was 15 bpm and the Activity (Erythrocyte) was “inactive”. The Activity (Aorta) was “inactive”, the Activity (Right cardiac atrium [4]) was “Active” and the Activity (Rattus norvegicus) was “inactive”. The Activity (Cavia porcellus) was “Active”.
In the case of `CC(COc1c(Cl)cccc1Cl)NCc1ccc2c(c1)C(C)(C)NC2(C)C` (stereo not drawn), the Activity (RAW264.7 [1]) was “Non-toxic”.
For `CC(N)COc1c(Cl)cccc1Cl` (stereo not drawn), the Activity (Right cardiac atrium [3]) was 15 bpm, the Activity (Right cardiac atrium [4]) was “Active” and the Activity (Cavia porcellus) was “inactive”.
In the case of `CC(COc1c(Cl)cccc1Cl)NCc1ccc2c(c1)C(C)(C)N([O])C2(C)C` (stereo not drawn), the Activity (Right cardiac atrium [3]; Cavia porcellus) was “Active”, the Activity (RAW264.7 [1]) was “Non-toxic” and the Activity (Right cardiac atrium [4]) was “inactive”. The Activity [5] was “Toxic”, the Activity (Rattus norvegicus) was “Active” and the Activity (Cavia porcellus) was “inactive”.
With `Cc1cccc(C)c1OCC(C)NCc1ccc2c(c1)C(C)(C)N([O])C2(C)C` (stereo not drawn) the Activity (RAW264.7 [2]) was “inactive”, the Activity (Right cardiac atrium [3]; Cavia porcellus) was “Active” and the Activity (Right cardiac atrium [4]) was “Active”. The Activity (Cavia porcellus) was “inactive”.
In the case of `Cc1cccc(C)c1OCC(C)NCc1ccc2c(c1)C(C)(C)NC2(C)C` (stereo not drawn), the Activity (RAW264.7 [2]) was “inactive”, the Activity (Right cardiac atrium [3]; Cavia porcellus) was “Active” and the Activity (Right cardiac atrium [4]) was “Active”. For the same compound, the Activity [5] was “Toxic”, the Activity [6] was 55% and the Activity (Cavia porcellus) was “inactive”.
With `CC1(C)NC(C)(C)c2ccccc21` the Activity (Erythrocyte) was “inactive”, the Activity (RAW264.7 [1]) was “Non-toxic” and the Activity (Aorta) was “inactive”.

Reference: ChEMBL document CHEMBL3734745, “Synthesis of six mexiletine derivatives with isoindolines attached as potential antioxidants and their evaluation as cardioprotective agents” (Medchemcomm, 2015)
